The experiment concerns the target T1, human M4 muscarinic acetylcholine receptor (Homo sapiens, UniProt P08173).
T1 construct: expressed in transfected cells; host or cells: CHO-K1
T1 sequence (P08173 1-479): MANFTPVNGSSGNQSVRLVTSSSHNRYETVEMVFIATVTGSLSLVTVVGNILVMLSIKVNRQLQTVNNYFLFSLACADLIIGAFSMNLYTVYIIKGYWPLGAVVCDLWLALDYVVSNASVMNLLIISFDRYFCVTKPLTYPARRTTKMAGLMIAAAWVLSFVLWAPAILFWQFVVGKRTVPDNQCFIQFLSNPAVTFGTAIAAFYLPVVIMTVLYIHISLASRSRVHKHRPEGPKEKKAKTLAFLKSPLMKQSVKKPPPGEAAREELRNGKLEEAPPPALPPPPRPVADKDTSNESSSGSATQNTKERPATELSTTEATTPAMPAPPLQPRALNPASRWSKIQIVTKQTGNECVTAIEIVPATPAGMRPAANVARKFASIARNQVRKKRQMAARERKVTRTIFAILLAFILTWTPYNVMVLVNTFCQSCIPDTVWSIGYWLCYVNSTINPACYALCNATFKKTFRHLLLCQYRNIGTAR
The experiment in a line: human FLIPR-based M4 PAM assay (CHO-K1 cells with human M4 receptor and Gaqi5, calcium dye fluorescence). It is filed as cell-based. Conditions: inflection point (IP) of dose response curve, acetylcholine added at 20% of maximum response, read-out: M4 FLIPPR Hu IP. Here is the method: (§1) In a typical experiment the M4 muscarinic acetylcholine receptor modulating activity of the compounds of the present invention was determined in accordance with the following experimental method. CHO-K1 cells stably transfected with human M4 receptor and chimeric G-protein Gaqi5 (Coward P, et al., Analytical Biochemistry, 270:242-248 (1999)) are thawed from liquid N2 storage, resuspended in growth medium, plated in black, clear bottom 384 well plates, and incubated 16-20 hours at 37° C., 5% CO2. On the day of assay, growth medium is removed, the cells are washed 2 times with wash buffer, and cells are incubated in dye loading buffer at 37° C., 5% CO2 for ˜1 hour. Following dye loading the cell plates are placed in a FLIPR Tetra instrument and while monitoring dye fluorescence (excitation 470-495 […]), 10 uL of test substance at increasing concentrations is added, and fluorescence values are recorded for 4 min. Next, 10 uL of acetylcholine is added (final concentration calculated so as to achieve 20% of the maximum acetycholine response), and the fluorescence reading is continued for 3.5 min. In some cases, a third addition of acetylcholine (final concentration calculated to achieve 70% of the maximal acetylcholine response) is performed. The resulting dose response curves are fit to a 4 parameter logistic equation and the final result is determined as the inflection point (IP) of the curve
as §1, with “CHO-K1” for “In a typical experiment the M4 muscarinic acetylcholine receptor modulating activity of the compounds of the present invention was determined in accordance with the following experimental method. CHO-K1”, “Gaqi5” for “Gaqi5 (Coward P, et al., Analytical Biochemistry, 270:242-248 (1999))”, “performed.” for “performed. The resulting dose response curves are fit to a 4 parameter logistic equation and the final result is determined as the inflection point (IP) of the curve”
In the case of `c1cnc2cc(-c3nc(-n4cccn4)ccc3-c3cnn(CC4CCCC4)c3)ccc2c1` [Example 167, 7-(3-(1-(cyclopentylmethyl)-1H-pyrazol-4-yl)-6-(1H-pyrazol-1-yl)pyridin-2-yl)quinoline], the EC50 is 98 nM.

As to `Cc1nc2cc(-c3nc(C#N)ccc3-c3cnn(CC4(F)CCCC4)c3)ccc2n1C` [Example 59, 6-(1,2-dimethyl-1H-benzo[d]imidazol-5-yl)-5-(1-((1-fluorocyclopentyl)methyl)-1H-pyrazol-4-yl)picolinonitrile], the EC50 stood at 43 nM.

As for `N#Cc1ccc(-c2cnn(CC3(F)CCCC3)c2)c(-c2ccn3cc(C(F)F)nc3c2)n1` [Example 58, 6-(2-(difluoromethyl)imidazo [1,2-a]pyridin-7-yl)-5-(1-((1-fluorocyclopentyl)methyl)-1H-pyrazol-4-yl)picolinonitrile], the EC50 is 15 nM.

As to `COc1cc2ccc(-c3nc(C)ccc3-c3cnn(CC4CCCC4)c3F)cc2nn1` [Example 12, 7-(3-(1-(cyclopentylmethyl)-5-fluoro-1H-pyrazol-4-yl)-6-methylpyridin-2-yl)-3-methoxycinnoline], the EC50 worked out at 7 nM.

On to `N#Cc1ccc(-c2cnn(CC3(F)CCCC3)c2)c(-c2ccn3ccnc3c2)n1` [Example 50, 5-(1-((1-fluorocyclopentyl)methyl)-1H-pyrazol-4-yl)-6-(imidazo[1,2-a]pyridin-7-yl)picolinonitrile], for which the EC50 was found to be 27 nM.

For `COc1cc2ccc(-c3nc(C)c(C)cc3-c3cnn(CC4(C)CCCC4)c3)cc2nn1` [Example 157, 7-(5,6-dimethyl-3-(1-((1-methylcyclopentyl)methyl)-1H-pyrazol-4-yl)pyridin-2-yl)-3-methoxycinnoline], the EC50 is 7 nM.

In the case of `N#Cc1ccc(-c2cnn(CC3(F)CCCC3)c2)c(-c2cnc3c(c2)C(=O)N(CCF)C3)n1` [Example 47, 5-(1-((1-fluorocyclopentyl)methyl)-1H-pyrazol-4-yl)-6-(6-(2-fluoroethyl)-5-oxo-6,7-dihydro-5H-pyrrolo[3,4-b]pyridin-3-yl)picolinonitrile], the EC50 was found to be 56 nM.

In the case of `O=C1c2cc(-c3ncc(F)cc3-c3cnn(CC4(F)CCCC4)c3)ccc2CN1C1CC1` [Example 101, 2-cyclopropyl-6-(5-fluoro-3-(1-((1-fluorocyclopentyl)methyl)-1H-pyrazol-4-yl)pyridin-2-yl) isoindolin-1-one], the EC50 came to 69 nM.

Consider `Cc1ccc(-c2cnn(CC3(F)CCCC3)c2)c(-c2ccc3cc(C(F)(F)F)cnc3c2)n1` [Example 14, 7-(3-(1-((1-fluorocyclopentyl)methyl)-1H-pyrazol-4-yl)-6-methylpyridin-2-yl)-3-(trifluoromethyl)quinoline], for which the EC50 amounted to 30 nM.

For the compound `COc1cc2ccc(-c3nc(C)c(C#N)cc3-c3cnn(CC4(C)CCCC4)c3)cc2nn1` [Example 105, 6-(3-methoxycinnolin-7-yl)-2-methyl-5-(1-((1-methylcyclopentyl)methyl)-1H-pyrazol-4-yl)nicotinonitrile], the EC50 was 17 nM.

In the case of `Cc1nc2ccc(-c3nc(C#N)ccc3-c3cnn(CC4(F)CCCC4)c3)cn2n1` [Example 60, 5-(1-((1-fluorocyclopentyl)methyl)-1H-pyrazol-4-yl)-6-(2-methyl-[1,2,4]triazolo[1,5-a]pyridin-6-yl)picolinonitrile], the EC50 is 110 nM.

With `Cc1cn2ccc(-c3nc(C#N)c(F)cc3-c3cnn(CC4(C)CCCC4)c3)cc2n1` [Example 88, 3-fluoro-5-(1-((1-methylcyclopentyl)methyl)-1H-pyrazol-4-yl)-6-(2-methylimidazo [1,2-a]pyridin-7-yl)picolinonitrile], the EC50 came to 24 nM.

For `Cc1ccc(-c2cnn(CC3(C)CCCC3)c2)c(-c2ccc3ccn(C)c(=O)c3c2)n1` [Example 35, 2-methyl-7-(6-methyl-3-(1-((1-methylcyclopentyl)methyl)-1H-pyrazol-4-yl)pyridin-2-yl)isoquinolin-1(2H)-one], the EC50 amounted to 26 nM.

Turning to `COc1cc2ccc(-c3nc(C)ccc3-c3cnn(CC4(C)CCC(=O)C4)c3)cc2nn1` (single isomer, unassigned; isomer a) [Example 149, 3-((4-(2-(3-methoxycinnolin-7-yl)-6-methylpyridin-3-yl)-1H-pyrazol-1-yl)methyl)-3-methylcyclopentan-1-one isomer A], the EC50 is 200 nM.

Regarding `Cn1cnc2cc(-c3nc(F)c(F)cc3-c3cnn(CC4(C)CCCC4)c3)cnc21` [compound 138, 6-(5,6-difluoro-3-(1-((1-methylcyclopentyl)methyl)-1H-pyrazol-4-yl)pyridin-2-yl)-3-methyl-3H-imidazo[4,5-b]pyridine], the EC50 was determined as 70 nM.

For the compound `CC1(Cn2ncc(-c3ccc(C#N)nc3-c3ccn4ccnc4c3)c2C#N)CCCC1` [Example 144, 5-(5-cyano-1-((1-methylcyclopentyl)methyl)-1H-pyrazol-4-yl)-6-(imidazo[1,2-a]pyridin-7-yl)picolinonitrile], the EC50 amounted to 54 nM.

With `Cc1cc(-c2cnn(CC3(F)CCCC3)c2)c(-c2ccn3cnnc3c2)nc1Cl` [Example 118, 7-(6-chloro-3-(1-((1-fluorocyclopentyl)methyl)-1H-pyrazol-4-yl)-5-methylpyridin-2-yl)-[1,2,4]triazolo[4,3-a]pyridine], the EC50 is 48 nM.

Turning to `FC(F)c1cn2ccc(-c3ncc(Cl)cc3-c3cnn(CC4(F)CCCC4)c3)cc2n1` [Example 111, 7-(5-chloro-3-(1-((1-fluorocyclopentyl)methyl)-1H-pyrazol-4-yl)pyridin-2-yl)-2-(difluoromethyl)imidazo [1,2-a]pyridine], the EC50 is 38 nM.

Consider `c1cnc(-c2ccc3cccnc3c2)c(-c2cnn(CC3CCCC3)c2)c1` [Example 147, 7-(3-(1-(cyclopentylmethyl)-1H-pyrazol-4-yl)pyridin-2-yl)quinoline], for which the EC50 was found to be 50 nM.

In the case of `N#Cc1ccc(-c2cnn(CC3CCC(F)C3)c2)c(-c2ccc3cccnc3c2)n1` (single isomer, unassigned) [compound 146, 5-(1-(((1R,3S) or (1S,3R)-3-fluoro-cyclopentyl)methyl)-1H-pyrazol-4-yl)-6-(quinolin-7-yl)picolinonitrile], the EC50 came out at 50 nM.

As for `COc1cc2ccc(-c3nc(C)ccc3-c3cnn(CC4CCC5(CC5)C4)c3)cc2nn1` (centres unmarked) [Example 145, 3-methoxy-7-(6-methyl-3-(1-(spiro[2.4]heptan-5-ylmethyl)-1H-pyrazol-4-yl)pyridin-2-yl)cinnoline], the EC50 is 92 nM.

Take `CC1(Cn2cc(-c3ccc(C#N)nc3-c3ccn4cc(C(F)F)nc4c3)cn2)CCCC1` [Example 76, 6-(2-(difluoromethyl)imidazo [1,2-a]pyridin-7-yl)-5-(1-((1-methylcyclopentyl)methyl)-1H-pyrazol-4-yl)picolinonitrile]: the EC50 amounted to 23 nM.

Turning to `CC1(Cn2cc(-c3cc(F)c(C#N)nc3-c3ccn4cc(CF)nc4c3)cn2)CCCC1` [compound 136, 3-fluoro-6-(2-(fluoro-methyl)imidazo[1,2-a]pyridin-7-yl)-5-(1-((1-methylcyclopentyl)meth-yl)-1H-pyrazol-4-yl)picolinonitrile], the EC50 came to 19 nM.

Take `COc1cc2ccc(-c3nc(C#N)ccc3-c3cnn(C[C@H]4CC[C@H](F)C4)c3)cc2nn1` [Example 67, 5-(1-(((1S,3S)-3-fluorocyclopentyl)methyl)-1H-pyrazol-4-yl)-6-(3-methoxycinnolin-7-yl)picolinonitrile]: the EC50 came out at 64 nM.

For the compound `CC1(Cn2cc(-c3ccc(C#N)nc3-c3ccc4cc(F)nnc4c3)cn2)CCCC1` [Example 128, 6-(3-fluorocinnolin-7-yl)-5-(1-((1-methylcyclopentyl)methyl)-1H-pyrazol-4-yl)picolinonitrile], the EC50 turned out to be 35 nM.

As for `Cn1cnc2cc(-c3nccc(F)c3-c3cnn(CC4(C)CCCC4)c3)cnc21` [Example 107, 6-(4-fluoro-3-(1-((1-methylcyclopentyl)methyl)-1H-pyrazol-4-yl)pyridin-2-yl)-3-methyl-3H-imidazo[4,5-b] pyridine], the EC50 amounted to 36 nM.

Values taken from patent US11149036B2, “3-(1H-pyrazol-4-yl)pyridine allosteric modulators of the M4 muscarinic acetylcholine receptor” (Merck Sharp & Dohme Corp., priority 2017, dated 2021).
